# Test results published in the supplement of paper PMC10307832.
# Experiments:
# Experiment in all cases: relative viability (nuclei count vs DMSO), 5 days (fraction); higher = more cells survive
# [1] = test system: ABC-1
# Outline: (§1)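 Medians of duplicate plates are given as relative viability. That measure is the nuclei count in treated wells divided by the count in vehicle wells. Counts were taken on 4× images of lung cancer cell lines in 1536-well plates, 5 days after pin-tool dosing the day after seeding with one drug alone or a fixed anchor-drug dose plus five library-drug doses (not always all listed) in √10 steps.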
# [2] = test system: CAL-12T
# Outline: as §1
# [3] = test system: COR-L23
# Outline: as §1
# [4] = test system: EKVX
# Outline: as §1
# [5] = test system: H3255
# Outline: as §1
# [6] = test system: HCC-15
# Outline: as §1
# [7] = test system: HCC-827
# Outline: as §1
# [8] = test system: LK-2
# Outline: as §1
# [9] = test system: NCI-H1355
# Outline: as §1
# [10] = test system: NCI-H1437
# Outline: as §1
# [11] = test system: NCI-H1563
# Outline: as §1
# [12] = test system: NCI-H1650
# Outline: as §1
# [13] = test system: NCI-H1734
# Outline: as §1
# [14] = test system: NCI-H2228
# Outline: as §1
# [15] = test system: NCI-H2342
# Outline: as §1
# [16] = test system: NCI-H2405
# Outline: as §1
# [17] = test system: NCI-H322M
# Outline: as §1
# [18] = test system: NCI-H520
# Outline: as §1
# [19] = test system: NCI-H661
# Outline: as §1
# [20] = test system: PC-14
# Outline: as §1
# [21] = test system: PC-3 [JPC-3]
# Outline: as §1
# [22] = test system: RERF-LC-KJ
# Outline: as §1
# [23] = test system: SW 1573
# Outline: as §1
compound,measurement,setting,value
NC(=O)Nc1cc(-c2cccc(F)c2)sc1C(=O)N[C@H]1CCCNC1 [AZD7762] + N=C(N)NC(=N)NCCc1ccccc1 [Phenformin] (partner 250 µM),relative viability,[1]; first compound 0.01 µM,0.273
same,relative viability,[1]; first compound 0.03162 µM,0.249
same,relative viability,[1]; first compound 0.1 µM,0.268
same,relative viability,[1]; first compound 0.3162 µM,0.203
same,relative viability,[1]; first compound 1 µM,0.19
same,relative viability,[2]; first compound 0.01 µM,0.605
same,relative viability,[2]; first compound 0.03162 µM,0.559
same,relative viability,[2]; first compound 0.1 µM,0.571
same,relative viability,[2]; first compound 0.3162 µM,0.321
same,relative viability,[2]; first compound 1 µM,0.114
same,relative viability,[3]; first compound 0.01 µM,0.458
same,relative viability,[3]; first compound 0.03162 µM,0.446
same,relative viability,[3]; first compound 0.1 µM,0.515
same,relative viability,[3]; first compound 0.3162 µM,0.349
same,relative viability,[3]; first compound 1 µM,0.131
same,relative viability,[4]; first compound 0.01 µM,0.194
same,relative viability,[4]; first compound 0.03162 µM,0.244
same,relative viability,[4]; first compound 0.1 µM,0.245
same,relative viability,[4]; first compound 0.3162 µM,0.229
same,relative viability,[4]; first compound 1 µM,0.206
same,relative viability,[5]; first compound 0.01 µM,0.337
same,relative viability,[5]; first compound 0.03162 µM,0.357
same,relative viability,[5]; first compound 0.1 µM,0.402
same,relative viability,[5]; first compound 0.3162 µM,0.378
same,relative viability,[5]; first compound 1 µM,0.374
same,relative viability,[6]; first compound 0.01 µM,0.483
same,relative viability,[6]; first compound 0.03162 µM,0.475
same,relative viability,[6]; first compound 0.1 µM,0.432
same,relative viability,[6]; first compound 0.3162 µM,0.473
same,relative viability,[6]; first compound 1 µM,0.445
same,relative viability,[7]; first compound 0.01 µM,0.406
same,relative viability,[7]; first compound 0.03162 µM,0.422
same,relative viability,[7]; first compound 0.1 µM,0.442
same,relative viability,[7]; first compound 0.3162 µM,0.435
same,relative viability,[7]; first compound 1 µM,0.249
same,relative viability,[8]; first compound 0.01 µM,0.396
same,relative viability,[8]; first compound 0.03162 µM,0.75
same,relative viability,[8]; first compound 0.1 µM,0.384
same,relative viability,[8]; first compound 0.3162 µM,0.45
same,relative viability,[8]; first compound 1 µM,0.31
same,relative viability,[9]; first compound 0.01 µM,0.403
same,relative viability,[9]; first compound 0.03162 µM,0.501
same,relative viability,[9]; first compound 0.1 µM,0.456
same,relative viability,[9]; first compound 0.3162 µM,0.49
same,relative viability,[9]; first compound 1 µM,0.444
same,relative viability,[10]; first compound 0.01 µM,0.304
same,relative viability,[10]; first compound 0.03162 µM,0.225
same,relative viability,[10]; first compound 0.1 µM,0.328
same,relative viability,[10]; first compound 0.3162 µM,0.343
same,relative viability,[10]; first compound 1 µM,0.279
same,relative viability,[11]; first compound 0.01 µM,0.645
same,relative viability,[11]; first compound 0.03162 µM,0.691
same,relative viability,[11]; first compound 0.1 µM,0.687
same,relative viability,[11]; first compound 0.3162 µM,0.612
same,relative viability,[11]; first compound 1 µM,0.694
same,relative viability,[12]; first compound 0.01 µM,0.51
same,relative viability,[12]; first compound 0.03162 µM,0.48
same,relative viability,[12]; first compound 0.1 µM,0.439
same,relative viability,[12]; first compound 0.3162 µM,0.252
same,relative viability,[12]; first compound 1 µM,0.18
same,relative viability,[13]; first compound 0.01 µM,0.44
same,relative viability,[13]; first compound 0.03162 µM,0.44
same,relative viability,[13]; first compound 0.1 µM,0.398
same,relative viability,[13]; first compound 0.3162 µM,0.33
same,relative viability,[13]; first compound 1 µM,0.211
same,relative viability,[14]; first compound 0.01 µM,0.305
same,relative viability,[14]; first compound 0.03162 µM,0.348
same,relative viability,[14]; first compound 0.1 µM,0.223
same,relative viability,[14]; first compound 0.3162 µM,0.152
same,relative viability,[14]; first compound 1 µM,0.13
same,relative viability,[15]; first compound 0.01 µM,0.597
same,relative viability,[15]; first compound 0.03162 µM,0.605
same,relative viability,[15]; first compound 0.1 µM,0.72
same,relative viability,[15]; first compound 0.3162 µM,0.567
same,relative viability,[15]; first compound 1 µM,0.56
same,relative viability,[16]; first compound 0.01 µM,0.4
same,relative viability,[16]; first compound 0.03162 µM,0.452
same,relative viability,[16]; first compound 0.1 µM,0.402
same,relative viability,[16]; first compound 0.3162 µM,0.425
same,relative viability,[16]; first compound 1 µM,0.242
same,relative viability,[17]; first compound 0.01 µM,0.704
same,relative viability,[17]; first compound 0.03162 µM,0.85
same,relative viability,[17]; first compound 0.1 µM,0.747
same,relative viability,[17]; first compound 0.3162 µM,0.36
same,relative viability,[17]; first compound 1 µM,0.284
same,relative viability,[18]; first compound 0.01 µM,0.623
same,relative viability,[18]; first compound 0.03162 µM,0.758
same,relative viability,[18]; first compound 0.1 µM,0.585
same,relative viability,[18]; first compound 0.3162 µM,0.306
same,relative viability,[18]; first compound 1 µM,0.283
same,relative viability,[19]; first compound 0.01 µM,0.272
same,relative viability,[19]; first compound 0.03162 µM,0.269
same,relative viability,[19]; first compound 0.1 µM,0.232
same,relative viability,[19]; first compound 0.3162 µM,0.265
same,relative viability,[19]; first compound 1 µM,0.262
same,relative viability,[20]; first compound 0.01 µM,0.652
same,relative viability,[20]; first compound 0.03162 µM,0.611
same,relative viability,[20]; first compound 0.1 µM,0.459
same,relative viability,[20]; first compound 0.3162 µM,0.305
same,relative viability,[20]; first compound 1 µM,0.213
same,relative viability,[21]; first compound 0.01 µM,0.485
same,relative viability,[21]; first compound 0.03162 µM,0.503
same,relative viability,[21]; first compound 0.1 µM,0.449
same,relative viability,[21]; first compound 0.3162 µM,0.484
same,relative viability,[21]; first compound 1 µM,0.405
same,relative viability,[22]; first compound 0.01 µM,0.481
same,relative viability,[22]; first compound 0.03162 µM,0.424
same,relative viability,[22]; first compound 0.1 µM,0.399
same,relative viability,[22]; first compound 0.3162 µM,0.4
same,relative viability,[22]; first compound 1 µM,0.382
same,relative viability,[23]; first compound 0.01 µM,0.374
same,relative viability,[23]; first compound 0.03162 µM,0.384
same,relative viability,[23]; first compound 0.1 µM,0.346
same,relative viability,[23]; first compound 0.3162 µM,0.297
same,relative viability,[23]; first compound 1 µM,0.164
